Drawing on ChEMBL document CHEMBL1201862, “PubChem BioAssay data set” (2004), this text covers EC50, IC50 and AC50 for 5 compounds.

For experiment [1], the target named is Neurotensin receptor type 1 (Homo sapiens, UniProt P30989). It is filed as functional.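 Further: Image-based confirmatory dose-response assay measuring agonist activity at NTR1; NTR1-expressing U2OS osteosarcoma cells imaged for beta-arrestin GFP spot formation; agonist potency where compounds increase beta-arrestin recruitment.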
Chain of Neurotensin receptor type 1 (P30989 whole entry): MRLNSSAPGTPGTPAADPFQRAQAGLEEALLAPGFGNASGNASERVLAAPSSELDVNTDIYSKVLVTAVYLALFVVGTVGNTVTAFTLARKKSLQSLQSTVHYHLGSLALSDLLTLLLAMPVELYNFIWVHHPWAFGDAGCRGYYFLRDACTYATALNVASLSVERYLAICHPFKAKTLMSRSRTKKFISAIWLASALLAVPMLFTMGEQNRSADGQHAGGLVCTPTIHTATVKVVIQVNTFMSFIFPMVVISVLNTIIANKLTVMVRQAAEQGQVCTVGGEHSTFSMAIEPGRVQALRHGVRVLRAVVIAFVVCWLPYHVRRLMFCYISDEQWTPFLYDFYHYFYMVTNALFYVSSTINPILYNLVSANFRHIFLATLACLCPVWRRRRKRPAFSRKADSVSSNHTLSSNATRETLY
Experiment [2] addresses Protein Rev (Human immunodeficiency virus type 1 group M subtype B (isolate HXB2)(HIV-1), UniProt P04618). The experiment is described as follows: blockers of HIV Rev/RRE RNA complex – biochemical, fluorescence polarization, HIV-1, dose response (AID 434976). Details: species or system Human immunodeficiency virus 1. On the technique in general: In fluorescence polarisation assays a small probe gives low polarisation when free and higher when bound to something large.

In experiment [3] the target is Female germline-specific tumor suppressor gld-1 (Caenorhabditis elegans, UniProt Q17339). The experiment is described as follows: blockers of GLD-1/TGE RNA complex formation – biochemical, fluorescence polarization, C. elegans, dose response (AID 2802).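 Further: fluorescence polarization of labeled TGE RNA bound by purified gld-1 protein.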
Chain of Female germline-specific tumor suppressor gld-1 (Q17339 whole entry): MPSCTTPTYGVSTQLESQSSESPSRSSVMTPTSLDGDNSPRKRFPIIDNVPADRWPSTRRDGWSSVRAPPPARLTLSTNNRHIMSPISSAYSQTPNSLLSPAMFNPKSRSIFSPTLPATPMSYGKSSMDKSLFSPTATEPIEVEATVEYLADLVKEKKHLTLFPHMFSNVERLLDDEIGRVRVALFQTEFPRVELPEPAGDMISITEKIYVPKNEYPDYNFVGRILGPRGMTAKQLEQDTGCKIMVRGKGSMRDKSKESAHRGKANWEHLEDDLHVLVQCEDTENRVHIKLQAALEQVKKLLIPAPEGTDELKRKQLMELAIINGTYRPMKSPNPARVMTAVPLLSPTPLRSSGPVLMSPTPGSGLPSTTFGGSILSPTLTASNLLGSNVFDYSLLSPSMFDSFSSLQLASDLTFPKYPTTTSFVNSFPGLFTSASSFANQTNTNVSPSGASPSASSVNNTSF
Experiment [4] concerns the target Intestinal-type alkaline phosphatase (Homo sapiens, UniProt P09923). The experiment is described as follows: Dose Response confirmation of uHTS hits from a small molecule inhibitors of human intestinal alkaline phosphatase via a luminescent assay. [Related pubchem assays (depositor defined):AID2544, AID2574]. The experiment is classed as functional.
Experiment [5] concerns the target Genome polyprotein (dengue virus type 2, UniProt P29990). In words: flavivirus cap methylation enzyme inhibition – biochemical, confirmation dose response, primary screen (AID 588689). The experiment is classed as functional.
The target of experiment [6] is T1, Corticotropin-releasing factor receptor 2/Corticotropin-releasing factor-binding protein (Homo sapiens, UniProt P24387+Q13324).
T1 sequence (Q13324 whole entry): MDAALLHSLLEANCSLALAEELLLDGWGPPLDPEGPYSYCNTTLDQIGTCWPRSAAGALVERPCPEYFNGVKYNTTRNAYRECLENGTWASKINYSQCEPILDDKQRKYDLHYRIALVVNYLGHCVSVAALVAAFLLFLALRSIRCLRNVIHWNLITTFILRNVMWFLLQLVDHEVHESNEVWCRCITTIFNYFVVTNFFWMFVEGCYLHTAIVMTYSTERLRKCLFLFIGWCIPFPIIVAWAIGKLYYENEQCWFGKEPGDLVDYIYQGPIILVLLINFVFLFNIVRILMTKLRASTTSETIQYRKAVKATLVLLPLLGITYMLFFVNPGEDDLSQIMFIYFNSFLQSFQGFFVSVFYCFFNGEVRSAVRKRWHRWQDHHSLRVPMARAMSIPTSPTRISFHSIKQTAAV
T1 sequence (P24387 whole entry): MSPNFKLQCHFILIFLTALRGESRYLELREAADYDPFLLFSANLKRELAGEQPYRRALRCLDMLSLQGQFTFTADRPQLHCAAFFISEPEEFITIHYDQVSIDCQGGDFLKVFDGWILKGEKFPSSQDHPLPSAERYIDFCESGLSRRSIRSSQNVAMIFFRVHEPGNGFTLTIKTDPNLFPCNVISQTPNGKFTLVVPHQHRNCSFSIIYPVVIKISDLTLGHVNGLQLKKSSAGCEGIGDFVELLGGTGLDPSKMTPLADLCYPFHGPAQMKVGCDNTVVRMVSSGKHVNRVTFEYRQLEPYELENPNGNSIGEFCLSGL
In words: activators of CRF receptor 2 with binding protein – uHTS hits, confirmation (AID 602473). The experiment is classed as functional. The following applies: read-out: EC50_Mean.

For experiment [7], the target named is Galanin receptor type 2 (Homo sapiens, UniProt O43603). The experiment is described as follows: Dose Response cell-based high-throughput screening assay to identify antagonists of galanin receptor 2 (GALR2). [Related pubchem assays: 828, 866 ]. The experiment is classed as functional.
Chain of Galanin receptor type 2 (O43603 whole entry): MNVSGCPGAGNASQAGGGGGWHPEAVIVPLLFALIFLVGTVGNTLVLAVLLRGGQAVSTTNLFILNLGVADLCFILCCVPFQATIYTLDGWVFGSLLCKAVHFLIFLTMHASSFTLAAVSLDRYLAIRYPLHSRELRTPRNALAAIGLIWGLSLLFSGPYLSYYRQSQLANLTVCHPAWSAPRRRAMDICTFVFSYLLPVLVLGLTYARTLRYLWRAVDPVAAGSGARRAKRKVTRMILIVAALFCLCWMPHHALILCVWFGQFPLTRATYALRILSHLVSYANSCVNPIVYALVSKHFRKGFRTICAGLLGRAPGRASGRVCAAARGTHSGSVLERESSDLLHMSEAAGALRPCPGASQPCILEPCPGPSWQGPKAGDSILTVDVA
Experiment [8] is described as follows: HEK-293T cell viability reduction – luminescence, B-cell screen hits, cytotoxicity control for BCR NF-kB inhibitor project, dose response (AID 489021).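 Further: HEK-293T cells carrying an NF-kB luciferase reporter; cells exposed to compound for about 14 hours before viability readout.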 The experiment is classed as functional, cell-based.
In experiment [9] the test system is INS1. In words: INS-1E survival protection against cytokine death – cell-based, luminescence, retest, dose response (AID 449756).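 Further: cell death triggered by IL-1 beta plus TNF-alpha plus IFN-gamma mixture; protective hits raise ATP signal compared with cytokine alone wells.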 It is filed as functional. As to conditions: Rattus norvegicus.
Experiment [10] addresses T2, Galanin receptor type 3 (Homo sapiens, UniProt O60755).
T2 sequence (O60755 whole entry): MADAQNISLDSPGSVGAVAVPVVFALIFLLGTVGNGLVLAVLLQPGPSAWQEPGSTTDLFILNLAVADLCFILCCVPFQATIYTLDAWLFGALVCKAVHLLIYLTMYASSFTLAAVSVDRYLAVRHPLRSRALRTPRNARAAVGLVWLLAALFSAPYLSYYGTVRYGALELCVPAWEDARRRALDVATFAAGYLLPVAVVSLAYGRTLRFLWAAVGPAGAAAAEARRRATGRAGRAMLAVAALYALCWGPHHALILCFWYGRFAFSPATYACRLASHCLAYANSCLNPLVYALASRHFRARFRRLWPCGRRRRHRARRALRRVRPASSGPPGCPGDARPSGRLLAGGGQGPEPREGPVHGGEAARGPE
The experiment is described as follows: Fluorescence-based cell-based primary high throughput dose response assay to identify antagonists of the Galanin Receptor 3 (GalR3). It is filed as functional.

Experiment [11] can be described thus: cells. The following applies: HEK-CNG. The experiment is classed as functional, cell-based.
In experiment [12] the test system is HEK293. In words: PMA/Ionomycin induced NF-kB luciferase assay in 293- NF-kB-Luc stable cells. [Related pubchem assays: 1299, 1270, 1295, 1375, 1287, 1281, 1293, 1291, 1289, 1280, 465, 1364, 1282, 1372, 1365, 1370, 1367, 1366, 1269, 1373, 1292, 1290, 1302, 1371, 1283, 1271, 1294, 1374, 1368, 1369 ]. The experiment is classed as functional, cell-based. As to conditions: Homo sapiens.

The target of experiment [13] is Luciferin 4-monooxygenase (Photinus pyralis, UniProt P08659). The experiment is described as follows: In vitro luciferase assay using purified luciferase. [Related pubchem assays: 1299, 1270, 1295, 1375, 1287, 1281, 1293, 1291, 1289, 1280, 465, 1364, 1282, 1372, 1365, 1370, 1367, 1366, 1266, 1373, 1292, 1290, 1302, 1371, 1283, 1271, 1294, 1374, 1368, 1369 ].
Chain of Luciferin 4-monooxygenase (P08659 whole entry): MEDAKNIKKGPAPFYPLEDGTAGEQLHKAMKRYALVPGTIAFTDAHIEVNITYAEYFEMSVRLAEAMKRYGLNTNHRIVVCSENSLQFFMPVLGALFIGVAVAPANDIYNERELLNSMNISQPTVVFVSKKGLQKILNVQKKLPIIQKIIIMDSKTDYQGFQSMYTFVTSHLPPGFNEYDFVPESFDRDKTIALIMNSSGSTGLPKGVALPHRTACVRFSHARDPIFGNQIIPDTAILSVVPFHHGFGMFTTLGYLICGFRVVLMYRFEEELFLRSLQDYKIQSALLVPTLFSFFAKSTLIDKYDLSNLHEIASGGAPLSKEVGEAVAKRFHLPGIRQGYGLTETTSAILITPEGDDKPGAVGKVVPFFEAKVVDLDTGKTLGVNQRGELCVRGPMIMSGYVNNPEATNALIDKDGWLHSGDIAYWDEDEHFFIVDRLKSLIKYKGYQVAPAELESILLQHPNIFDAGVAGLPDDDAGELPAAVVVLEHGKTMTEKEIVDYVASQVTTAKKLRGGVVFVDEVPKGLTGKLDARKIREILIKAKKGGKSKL
In experiment [14] the test system is HEK293. The experiment is described as follows: Cytotoxicity assay in HEK293 cells. [Related pubchem assays (depositor defined):AID1266, AID1269, AID1270, AID1271, AID1280, AID1281, AID1282, AID1283, AID1287, AID1289, AID1290, AID1291, AID1292, AID1293, AID1294, AID1295, AID1299, AID1302, AID1364, AID1365, AID1366, AID1367, AID1369, AID1370, AID1371, AID1372, AID1373, AID1374, AID1375, AID1384 …. The experiment is classed as functional, cell-based. As to conditions: Homo sapiens.

In experiment [15] the test system is HEK293. The experiment is described as follows: TNF Induced NF-kB Luciferase in 293-NF-kB-Luc Stable Cells. [Related pubchem assays: 1266, 1299, 1269, 1373, 1292, 1290, 1302, 1371, 1283, 1270, 1295, 1271, 1375, 1294, 1374, 1281, 1293, 1291, 1289, 1280, 465, 1368, 1364, 1282, 1372, 1365, 1369, 1370, 1367, 1366 ]. It is filed as functional, cell-based. As to conditions: Homo sapiens.

Experiment [16] deals with HEK293. The experiment is described as follows: EBV LMP1 TES2 canonical NF-kB signalling blockers – cell-based, HEK293, luciferase, cherry-pick, dose response (AID 588343). The experiment is classed as functional. As to conditions: Homo sapiens.
In experiment [17] the target is T3, Replicative DNA helicase DnaB (Mycobacterium tuberculosis, UniProt P9WMR3).
T3 sequence (P9WMR3 whole entry): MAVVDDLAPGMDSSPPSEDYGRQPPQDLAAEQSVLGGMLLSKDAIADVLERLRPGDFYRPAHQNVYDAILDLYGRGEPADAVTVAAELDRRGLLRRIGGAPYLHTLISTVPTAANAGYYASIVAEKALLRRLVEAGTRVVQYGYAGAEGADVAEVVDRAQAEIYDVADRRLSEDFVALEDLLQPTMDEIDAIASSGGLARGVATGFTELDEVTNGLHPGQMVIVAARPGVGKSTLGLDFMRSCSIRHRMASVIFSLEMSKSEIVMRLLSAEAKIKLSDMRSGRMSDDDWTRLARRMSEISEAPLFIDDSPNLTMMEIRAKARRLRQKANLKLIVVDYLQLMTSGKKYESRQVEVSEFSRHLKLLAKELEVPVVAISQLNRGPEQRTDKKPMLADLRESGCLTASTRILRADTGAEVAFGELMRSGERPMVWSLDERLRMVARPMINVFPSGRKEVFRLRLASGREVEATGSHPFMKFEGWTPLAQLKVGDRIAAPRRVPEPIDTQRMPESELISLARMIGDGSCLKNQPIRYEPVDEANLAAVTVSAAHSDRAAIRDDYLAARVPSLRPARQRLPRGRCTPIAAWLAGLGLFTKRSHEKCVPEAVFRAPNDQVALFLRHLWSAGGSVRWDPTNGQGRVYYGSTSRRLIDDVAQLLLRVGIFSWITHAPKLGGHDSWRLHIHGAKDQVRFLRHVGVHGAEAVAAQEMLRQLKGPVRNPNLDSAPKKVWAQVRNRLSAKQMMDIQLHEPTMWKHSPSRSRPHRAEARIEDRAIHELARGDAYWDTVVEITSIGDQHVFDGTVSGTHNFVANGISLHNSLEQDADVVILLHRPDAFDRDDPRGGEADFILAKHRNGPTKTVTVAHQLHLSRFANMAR
In words: DnaB intein splicing inhibitors, dose response, biochemical, cell-free fluorescence (AID 449749). The experiment is classed as functional.

For experiment [18], the target named is T4, Protein RecA (Mycobacterium tuberculosis, UniProt P9WHJ3).
T4 sequence (P9WHJ3 whole entry): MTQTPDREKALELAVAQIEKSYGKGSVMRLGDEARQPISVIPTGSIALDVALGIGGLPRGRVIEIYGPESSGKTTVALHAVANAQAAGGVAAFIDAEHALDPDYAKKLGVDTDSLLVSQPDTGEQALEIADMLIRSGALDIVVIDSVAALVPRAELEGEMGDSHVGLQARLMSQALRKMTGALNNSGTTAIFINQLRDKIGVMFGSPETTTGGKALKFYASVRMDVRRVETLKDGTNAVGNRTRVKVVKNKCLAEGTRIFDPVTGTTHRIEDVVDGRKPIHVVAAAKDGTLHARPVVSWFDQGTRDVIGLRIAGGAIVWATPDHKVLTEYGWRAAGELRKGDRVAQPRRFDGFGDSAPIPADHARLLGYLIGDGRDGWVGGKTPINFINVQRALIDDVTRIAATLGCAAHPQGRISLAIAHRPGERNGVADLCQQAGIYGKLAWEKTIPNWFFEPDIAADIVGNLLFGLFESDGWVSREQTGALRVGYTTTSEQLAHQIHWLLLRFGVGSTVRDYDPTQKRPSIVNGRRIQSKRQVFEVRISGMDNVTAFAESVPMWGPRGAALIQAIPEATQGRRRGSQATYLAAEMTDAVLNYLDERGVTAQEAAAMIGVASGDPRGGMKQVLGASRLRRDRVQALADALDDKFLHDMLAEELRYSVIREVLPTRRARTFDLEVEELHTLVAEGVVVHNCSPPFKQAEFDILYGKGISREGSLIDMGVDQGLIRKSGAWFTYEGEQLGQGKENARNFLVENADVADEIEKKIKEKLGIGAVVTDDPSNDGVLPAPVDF
The experiment is described as follows: Fluorescence Cell-Free Homogeneous Dose Retest to Identify Inhibitors of RecA-Intein Splicing Activity. [Related pubchem assays (depositor defined):AID2097, AID2223, AID489010, AID492950]. It is filed as functional.

The target of experiment [19] is Protein phosphatase methylesterase 1 (Homo sapiens, UniProt Q9Y570). In words: endogenous PME-1 and serine hydrolase inhibition – cell lysate, mouse brain cytosol, FP-rhodamine, gel ABPP, selectivity assay for PME-1 inhibitor project, dose response, panel member PME-1 Assay Panel member description: Inhibition of endogenously expressed PME-1 (AID 2366).
Chain of Protein phosphatase methylesterase 1 (Q9Y570 whole entry): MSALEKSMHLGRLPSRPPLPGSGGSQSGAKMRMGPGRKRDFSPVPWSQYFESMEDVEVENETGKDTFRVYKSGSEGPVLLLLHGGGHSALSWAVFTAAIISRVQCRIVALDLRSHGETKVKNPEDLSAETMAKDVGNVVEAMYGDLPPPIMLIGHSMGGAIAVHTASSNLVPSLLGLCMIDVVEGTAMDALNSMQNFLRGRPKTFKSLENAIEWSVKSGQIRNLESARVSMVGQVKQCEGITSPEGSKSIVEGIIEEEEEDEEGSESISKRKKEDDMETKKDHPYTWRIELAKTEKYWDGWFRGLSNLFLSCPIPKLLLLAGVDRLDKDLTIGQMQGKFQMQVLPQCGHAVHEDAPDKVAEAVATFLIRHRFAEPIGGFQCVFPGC

The source made the active and inactive calls. Bounds are passed on as bounds.

Chain of Protein Rev (P04618 whole entry): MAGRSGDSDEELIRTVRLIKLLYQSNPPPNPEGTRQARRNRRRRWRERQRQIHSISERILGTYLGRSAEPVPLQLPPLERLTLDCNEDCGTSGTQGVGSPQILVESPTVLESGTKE
Chain of Genome polyprotein (P29990 2492-3391 limits assumed): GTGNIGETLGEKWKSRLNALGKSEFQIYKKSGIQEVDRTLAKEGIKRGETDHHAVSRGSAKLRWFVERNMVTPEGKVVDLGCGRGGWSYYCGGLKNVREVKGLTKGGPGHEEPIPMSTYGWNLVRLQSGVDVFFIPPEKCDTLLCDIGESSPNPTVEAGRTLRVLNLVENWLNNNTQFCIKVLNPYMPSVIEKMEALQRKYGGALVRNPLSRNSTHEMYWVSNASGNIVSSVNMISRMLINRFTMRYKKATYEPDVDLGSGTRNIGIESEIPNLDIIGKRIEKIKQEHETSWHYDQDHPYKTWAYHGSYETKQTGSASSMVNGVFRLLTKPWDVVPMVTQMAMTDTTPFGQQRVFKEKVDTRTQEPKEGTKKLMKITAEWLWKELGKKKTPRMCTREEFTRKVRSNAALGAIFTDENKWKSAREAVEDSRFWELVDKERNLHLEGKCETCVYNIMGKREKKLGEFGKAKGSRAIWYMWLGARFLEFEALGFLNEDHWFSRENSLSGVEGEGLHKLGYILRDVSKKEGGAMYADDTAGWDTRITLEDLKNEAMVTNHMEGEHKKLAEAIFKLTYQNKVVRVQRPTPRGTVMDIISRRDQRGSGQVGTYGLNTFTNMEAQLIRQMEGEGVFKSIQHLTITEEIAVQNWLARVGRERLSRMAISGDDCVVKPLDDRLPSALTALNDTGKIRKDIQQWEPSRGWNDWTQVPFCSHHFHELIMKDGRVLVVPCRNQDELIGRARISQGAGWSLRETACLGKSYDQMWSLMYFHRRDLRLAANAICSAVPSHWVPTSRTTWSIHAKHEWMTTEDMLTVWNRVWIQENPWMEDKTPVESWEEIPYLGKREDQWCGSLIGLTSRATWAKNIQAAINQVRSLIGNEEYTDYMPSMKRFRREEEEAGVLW
Chain of Intestinal-type alkaline phosphatase (P09923 whole entry): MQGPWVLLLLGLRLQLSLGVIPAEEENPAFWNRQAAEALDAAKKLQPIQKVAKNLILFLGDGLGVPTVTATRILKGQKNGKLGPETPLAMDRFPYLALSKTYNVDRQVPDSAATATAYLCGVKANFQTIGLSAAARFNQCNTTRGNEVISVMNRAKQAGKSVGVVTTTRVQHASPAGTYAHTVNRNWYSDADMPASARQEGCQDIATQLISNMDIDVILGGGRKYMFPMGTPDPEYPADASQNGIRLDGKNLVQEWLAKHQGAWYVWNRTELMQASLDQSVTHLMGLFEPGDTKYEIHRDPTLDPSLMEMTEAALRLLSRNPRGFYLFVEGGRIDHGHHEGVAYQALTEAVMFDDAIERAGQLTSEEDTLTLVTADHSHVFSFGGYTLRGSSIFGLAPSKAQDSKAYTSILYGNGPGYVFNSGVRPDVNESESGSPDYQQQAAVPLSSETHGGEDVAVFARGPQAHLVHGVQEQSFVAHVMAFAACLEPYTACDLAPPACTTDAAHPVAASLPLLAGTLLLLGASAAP

`O=C(/C=C\c1ccccc1OC(=O)c1ccccc1F)c1cc2ccccc2o1`: in experiment [1], the EC50 is 12 µM (active).
For the compound `COc1ccc2nc(N3CCC(O)CC3)c(C#N)cc2c1`, the IC50 was 67.6 µM (not active) in experiment [2], 24.9 µM (inactive) in [3], > 100 µM (inactive) in [4] and 59.2 µM (active) in experiment [5]. For the same compound, in experiment [6], the EC50 was > 53 µM (inactive).
For the compound `O=S(=O)(NCc1ccncc1)c1ccc(Br)s1`, the IC50 was > 42 µM (not active) in experiment [7], > 80 µM (inactive) in [8] and 2.06 µM (active) in experiment [10]. Moreover, the half-maximal activity concentration (AC50) in experiment [9] is 2.91 µM (active). In addition, the EC50 in [11] is > 29.9 µM (inactive).
Turning to `Cc1n[nH]c2c1C(c1c(C)nn(-c3ccccc3)c1Cl)C(C#N)=C(N)O2` (centres undefined), the EC50 in experiment [12] was 1 µM (active); in [13], > 8 µM (not active); in experiment [14], > 8 µM (inactive); in [15], 1.68 µM (active); in [18], 13.5 µM (active). The AC50 in experiment [16] was 7.01 µM (active); in [17], 14 µM (active).
Take `Cc1noc(C)c1S(=O)(=O)n1cccc1/C=C(\C#N)S(C)(=O)=O`: the IC50 in experiment [19] is > 20 µM (inactive).

A word on the IC50: it is the point on the concentration scale where inhibition reaches its midpoint. The term AC50 denotes the concentration at which the activity in the assay is half-maximal.
